Target: T1, SYK kinase (Homo sapiens, UniProt P43405)
T1 construct: purchased Invitrogen, Carlsbad
Assay: SYK assay (OMNIA Kinase Assay, Invitrogen)
Format: biochemical
Conditions: SYK Activities; 1 mM ATP, 10 μM Omnia Peptide Substrate Tyr 7, 30° C.
Method in brief: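 SYK was added last to start phosphorylation of a chelation-enhanced SOX peptide substrate (10 μM) in the presence of 1 mM ATP and 0.2 mM DTT at 30° C. Kinetic readings at λex 360/λem 485 nm over 30 min gave velocities, fitted sigmoidally against compound concentration to give IC50.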

CC(=O)N1CCN(c2ccc(Nc3nc(-c4cccc(N)c4)nc4cn[nH]c34)cc2)CC1 [Example 14, 1-(4-(4-((5-(3-aminophenyl)-1H-pyrazolo[4,3-d]pyrimidin-7-yl)amino)phenyl)piperazin-1-yl)ethan-1-one]
IC50: 0.1 to 1 µM

OCCn1cc(Nc2nc(-c3nc4ccccc4o3)nc3cn[nH]c23)cn1 [Example 444, 2-(4-((5-(benzo[d]oxazol-2-yl)-1H-pyrazolo[4,3-d]pyrimidin-7-yl)amino)-1H-pyrazol-1-yl)ethan-1-ol]
IC50: 0.1 to 1 µM

COCCCn1cc(Nc2nc(C3CC3)nc3cn[nH]c23)cn1 [Example 230, 5-cyclopropyl-N-(1-(3-methoxypropyl)-1H-pyrazol-4-yl)-1H-pyrazolo[4,3-d]pyrimidin-7-amine]
IC50: 0.01 to 0.1 µM

O=C(c1ccc(Nc2nc(-c3ccco3)nc3cn[nH]c23)cc1F)N1CCOCC1 [Example 197, (2-fluoro-4-((5-(furan-2-yl)-1H-pyrazolo[4,3-d]pyrimidin-7-yl)amino)phenyl)(morpholino)methanone]
IC50: 0.1 to 1 µM

FCCn1cc(Nc2nc(C3CCC3)nc3cn[nH]c23)cn1 [Example 363, 5-cyclobutyl-N-(1-(2-fluoroethyl)-1H-pyrazol-4-yl)-1H-pyrazolo[4,3-d]pyrimidin-7-amine]
IC50: 0.01 to 0.1 µM

c1cc(-c2nc(Nc3cnn(C4CCCOC4)c3)c3[nH]ncc3n2)co1 (centres unmarked) [Example 483, 5-(furan-3-yl)-N-(1-(tetrahydro-2H-pyran-3-yl)-1H-pyrazol-4-yl)-1H-pyrazolo[4,3-d]pyrimidin-7-amine]
IC50: 0.01 to 0.1 µM

OCCn1cc(Nc2nc(-c3ccoc3)nc3cn[nH]c23)cn1 [Example 242, 2-(4-((5-(furan-3-yl)-1H-pyrazolo[4,3-d]pyrimidin-7-yl)amino)-1H-pyrazol-1-yl)ethan-1-ol]
IC50: < 0.01 µM

Fc1ccccc1-c1nc(Nc2ccc(N3CCOCC3)c(F)c2)c2[nH]ncc2n1 [Example 24, N-(3-fluoro-4-morpholinophenyl)-5-(2-fluorophenyl)-1H-pyrazolo[4,3-d]pyrimidin-7-amine]
IC50: 0.1 to 1 µM

COCCCn1cc(Nc2nc(-c3ccco3)nc3cn[nH]c23)cn1 [Example 215, 5-(furan-2-yl)-N-(1-(3-methoxypropyl)-1H-pyrazol-4-yl)-1H-pyrazolo[4,3-d]pyrimidin-7-amine]
IC50: < 0.01 µM

N#CC1(n2cc(Nc3nc(-c4ccco4)nc4cn[nH]c34)cn2)CCCCC1 [Example 213, 1-(4-((5-(furan-2-yl)-1H-pyrazolo[4,3-d]pyrimidin-7-yl)amino)-1H-pyrazol-1-yl)cyclohexanecarbonitrile]
IC50: 0.1 to 1 µM

CC(C)Cn1cc(Nc2nc(-c3ccc4cn[nH]c4c3)nc3cn[nH]c23)cn1 [Example 423, 5-(1H-indazol-6-yl)-N-(1-isobutyl-1H-pyrazol-4-yl)-1H-pyrazolo[4,3-d]pyrimidin-7-amine]
IC50: 0.01 to 0.1 µM

CC(C)(C)N1CCC(n2cc(Nc3nc(-c4nc5c(s4)CCCC5)nc4cn[nH]c34)cn2)CC1 [Example 495, N-(1-(1-(tert-butyl)piperidin-4-yl)-1H-pyrazol-4-yl)-5-(4,5,6,7-tetrahydrobenzo[d]thiazol-2-yl)-1H-pyrazolo[4,3-d]pyrimidin-7-amine]
IC50: 0.01 to 0.1 µM

COCCCn1cc(Nc2nc(-c3cnn(C)c3)nc3cn[nH]c23)cn1 [Example 436, N-(1-(3-methoxypropyl)-1H-pyrazol-4-yl)-5-(1-methyl-1H-pyrazol-4-yl)-1H-pyrazolo[4,3-d]pyrimidin-7-amine]
IC50: 0.1 to 1 µM

c1nn(C2CC2)cc1Nc1nc(C2CC2)nc2cn[nH]c12 [Example 282, 5-cyclopropyl-N-(1-cyclopropyl-1H-pyrazol-4-yl)-1H-pyrazolo[4,3-d]pyrimidin-7-amine]
IC50: 0.01 to 0.1 µM

COCCCn1cc(Nc2nc(-c3cocn3)nc3cn[nH]c23)cn1 [Example 245, N-(1-(3-methoxypropyl)-1H-pyrazol-4-yl)-5-(oxazol-4-yl)-1H-pyrazolo[4,3-d]pyrimidin-7-amine]
IC50: < 0.01 µM

O=C1CSc2ccc(Nc3nc(-c4ccc5cn[nH]c5c4)nc4cn[nH]c34)cc2N1 [Example 520, 6-((5-(1H-indazol-6-yl)-1H-pyrazolo[4,3-d]pyrimidin-7-yl)amino)-2H-benzo[b][1,4]thiazin-3(4H)-one]
IC50: 0.1 to 1 µM

Nc1ccccc1-c1nc(Nc2cnn(C3CCOCC3)c2)c2n[nH]cc2n1 [Example 531, 5-(2-aminophenyl)-N-(1-(tetrahydro-2H-pyran-4-yl)-1H-pyrazol-4-yl)-2H-pyrazolo[4,3-d]pyrimidin-7-amine]
IC50: 0.1 to 1 µM

COc1ccc(Nc2nc(-c3ccno3)nc3cn[nH]c23)cc1OC [Example 68, N-(3,4-dimethoxyphenyl)-5-(isoxazol-5-yl)-1H-pyrazolo[4,3-d]pyrimidin-7-amine]
IC50: 0.1 to 1 µM

CC(C)n1cc(Nc2nc(-c3cnn(C)c3)nc3cn[nH]c23)cn1 [Example 420, N-(1-isopropyl-1H-pyrazol-4-yl)-5-(1-methyl-1H-pyrazol-4-yl)-1H-pyrazolo[4,3-d]pyrimidin-7-amine]
IC50: 0.01 to 0.1 µM

COCCCn1cc(Nc2nc(-c3ccc4cn[nH]c4c3)nc3cn[nH]c23)cn1 [Example 419, 5-(1H-indazol-6-yl)-N-(1-(3-methoxypropyl)-1H-pyrazol-4-yl)-1H-pyrazolo[4,3-d]pyrimidin-7-amine]
IC50: 0.01 to 0.1 µM

CC(C)C(C)n1cc(Nc2nc(C3CC3)nc3cn[nH]c23)cn1 (centres unmarked) [Example 498, 5-cyclopropyl-N-(1-(3-methylbutan-2-yl)-1H-pyrazol-4-yl)-1H-pyrazolo[4,3-d]pyrimidin-7-amine]
IC50: 0.01 to 0.1 µM

O=C1COc2ccc(Nc3nc(-c4ccc5cn[nH]c5c4)nc4cn[nH]c34)cc2N1 [Example 519, 6-((5-(1H-indazol-6-yl)-1H-pyrazolo[4,3-d]pyrimidin-7-yl)amino)-2H-benzo[b][1,4]oxazin-3(4H)-one]
IC50: < 0.01 µM

Cc1c(Nc2nc(-c3ccoc3)nc3cn[nH]c23)cnn1C1CCOCC1 [Example 295, 5-(furan-3-yl)-N-(5-methyl-1-(tetrahydro-2H-pyran-4-yl)-1H-pyrazol-4-yl)-1H-pyrazolo[4,3-d]pyrimidin-7-amine]
IC50: 0.1 to 1 µM

COc1ccc(Nc2nc(-c3cccc(C(=O)Nc4ccc(-c5ncco5)cc4)c3)nc3cn[nH]c23)cc1OC [Example 321, 3-(7-((3,4-dimethoxyphenyl)amino)-1H-pyrazolo[4,3-d]pyrimidin-5-yl)-N-(4-(oxazol-2-yl)phenyl)benzamide]
IC50: 0.1 to 1 µM

c1cc(-c2nc(Nc3ccc(N4CCOCC4)cc3)c3[nH]ncc3n2)on1 [Example 69, 5-(isoxazol-5-yl)-N-(4-morpholinophenyl)-1H-pyrazolo[4,3-d]pyrimidin-7-amine]
IC50: < 0.01 µM

CC(=O)N1CCN(c2ccc(Nc3nc(C4CC4C)nc4cn[nH]c34)cc2)CC1 (centres unmarked) [Example 102, 1-(4-(4-((5-(2-methylcyclopropyl)-1H-pyrazolo[4,3-d]pyrimidin-7-yl)amino)phenyl)piperazin-1-yl)ethan-1-one]
IC50: 0.1 to 1 µM

OCCn1cc(Nc2nc(-c3cocn3)nc3cn[nH]c23)cn1 [Example 247, 2-(4-((5-(oxazol-4-yl)-1H-pyrazolo[4,3-d]pyrimidin-7-yl)amino)-1H-pyrazol-1-yl)ethan-1-ol]
IC50: 0.01 to 0.1 µM

CC(C)(C)N1CCN(c2ccc(Nc3nc(-c4ccco4)nc4cn[nH]c34)cc2)CC1 [Example 112, N-(4-(4-(tert-butyl)piperazin-1-yl)phenyl)-5-(furan-2-yl)-1H-pyrazolo[4,3-d]pyrimidin-7-amine]
IC50: < 0.01 µM

CC(C)(O)Cn1cc(Nc2nc(-c3ccco3)nc3cn[nH]c23)cn1 [Example 451, 1-(4-((5-(furan-2-yl)-1H-pyrazolo[4,3-d]pyrimidin-7-yl)amino)-1H-pyrazol-1-yl)-2-methylpropan-2-ol]
IC50: 0.01 to 0.1 µM

CC(C)c1nc(Nc2cnn(C3CCOCC3)c2)c2[nH]ncc2n1 [Example 182, 5-isopropyl-N-(1-(tetrahydro-2H-pyran-4-yl)-1H-pyrazol-4-yl)-1H-pyrazolo[4,3-d]pyrimidin-7-amine]
IC50: 0.1 to 1 µM

CC(C)(C)n1cc(Nc2nc(-c3ccoc3)nc3cn[nH]c23)cn1 [Example 218, N-(1-(tert-butyl)-1H-pyrazol-4-yl)-5-(furan-3-yl)-1H-pyrazolo[4,3-d]pyrimidin-7-amine]
IC50: 0.01 to 0.1 µM

CC(=O)Nc1cc(Nc2nc(-c3c(F)cccc3F)nc3cn[nH]c23)ccc1N1CCN(C(C)=O)CC1 [Example 538, N-(2-(4-acetylpiperazin-1-yl)-5-((5-(2,6-difluorophenyl)-1H-pyrazolo[4,3-d]pyrimidin-7-yl)amino)phenyl)acetamide]
IC50: 0.1 to 1 µM

OC1CCN(c2ccc(Nc3nc(-c4ccoc4)nc4cn[nH]c34)cc2)CC1 [Example 443, 1-(4-((5-(furan-3-yl)-1H-pyrazolo[4,3-d]pyrimidin-7-yl)amino)phenyl)piperidin-4-ol]
IC50: 0.01 to 0.1 µM

CN1CCC(n2cc(Nc3nc(-c4ccoc4)nc4cn[nH]c34)cn2)CC1 [Example 202, 5-(furan-3-yl)-N-(1-(1-methylpiperidin-4-yl)-1H-pyrazol-4-yl)-1H-pyrazolo[4,3-d]pyrimidin-7-amine]
IC50: < 0.01 µM

CC(=O)N1CCC(n2cc(Nc3nc(-c4cccc(S(N)(=O)=O)c4)nc4cn[nH]c34)cn2)CC1 [Example 427, 3-(7-((1-(1-acetylpiperidin-4-yl)-1H-pyrazol-4-yl)amino)-1H-pyrazolo[4,3-d]pyrimidin-5-yl)benzenesulfonamide]
IC50: 0.1 to 1 µM

COCCCn1cc(Nc2nc(C3CCC3)nc3cn[nH]c23)cn1 [Example 224, 5-cyclobutyl-N-(1-(3-methoxypropyl)-1H-pyrazol-4-yl)-1H-pyrazolo[4,3-d]pyrimidin-7-amine]
IC50: 0.01 to 0.1 µM

COCCCn1cc(Nc2nc(-c3ncco3)nc3cn[nH]c23)cn1 [Example 251, N-(1-(3-methoxypropyl)-1H-pyrazol-4-yl)-5-(oxazol-2-yl)-1H-pyrazolo[4,3-d]pyrimidin-7-amine]
IC50: 0.1 to 1 µM

COCCn1cc(Nc2nc(C3CCC3)nc3cn[nH]c23)cn1 [Example 191, 5-cyclobutyl-N-(1-(2-methoxyethyl)-1H-pyrazol-4-yl)-1H-pyrazolo[4,3-d]pyrimidin-7-amine]
IC50: 0.01 to 0.1 µM

Reference: patent US9637491B2, “Pyrazolo[4,3-D]pyrimidines as kinase inhibitors” (Origenis GmbH, priority 2012, dated 2017)
